According to patent EP4800018A1, “PAN-KRAS INHIBITOR AND USE THEREOF IN MEDICINES” (Betta Pharmaceuticals Co., Ltd., priority 2023, dated 2025):
Where two headings read alike, the source gives them in different places.

What was measured:
Type in all cases: cell-based
[1] = system: KRAS-G12D mutant tumor cells AGS; test: Cell Proliferation Inhibition Assay (AGS), Cell-titer GLO, 96 h; conditions: read-out: AGS(G12D)
In short: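 Inhibition % was derived from CellTiter-Glo luminescence (max minus measured, over max minus blank) and fitted to give IC50. Cells were KRAS-G12D AGS in low-attachment wells, treated for 96 h at 37°C.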

[2] = system: KRAS-G12V mutant tumor cells SW620; test: Cell Proliferation Inhibition Assay (SW620), Cell-titer GLO, 96 h; conditions: read-out: SW620(G12V)
In short: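 Readout: Cell-titer GLO luminescence after 96 h at 37°C, converted to percent inhibition against 0.5% DMSO and blank controls, with IC50 from curve fit. Low-attachment SW620 cultures (1×10^3 cells/well) were dosed at 10000–0.03 nM final.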

[3] = target: T1, KRAS G12D-cRAF (Homo sapiens, UniProt P01116, G12D); test: Cellular KRAS G12D-cRAF Binding Inhibition Assay (NanoBRET, AD293 stable cells); conditions: 3 h incubation
T1 construct: expressed in transfected cells
T1 sequence (P01116 1-188 isoform P01116-2 G12D): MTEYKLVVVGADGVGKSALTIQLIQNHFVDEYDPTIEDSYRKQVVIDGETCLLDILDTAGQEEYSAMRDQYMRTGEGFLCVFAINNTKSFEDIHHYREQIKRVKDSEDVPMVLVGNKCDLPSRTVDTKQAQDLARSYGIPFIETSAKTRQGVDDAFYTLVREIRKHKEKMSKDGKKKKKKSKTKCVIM
In short: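 IC50 values derive from fitted % inhibition, normalised to maximum signal and medium-only blank. The read-out is NanoBRET between KRAS G12D-NanoLuc (donor) and cRAF RBD-HaloTag labelled with the 618 ligand (acceptor), in live stably transfected AD293 cells at 1×10^4/well.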

[4] = target: T2, KRAS G12V-cRAF (Homo sapiens, UniProt P01116, G12V); test: Cellular KRAS G12V-cRAF Binding Inhibition Assay (NanoBRET, AD293 stable cells); conditions: 3 h incubation
T2 construct: expressed in transfected cells
T2 sequence (P01116 1-188 isoform P01116-2 G12V): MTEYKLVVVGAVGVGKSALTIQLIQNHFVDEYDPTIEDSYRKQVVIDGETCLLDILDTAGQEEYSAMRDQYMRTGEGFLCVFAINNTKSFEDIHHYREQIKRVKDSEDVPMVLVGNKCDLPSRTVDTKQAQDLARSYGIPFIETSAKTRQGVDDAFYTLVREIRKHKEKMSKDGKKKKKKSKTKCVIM
In short: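 Binding measured as BRET between NanoLuc and HaloTag-bound NanoBRET 618 ligand (added overnight) in stably expressing AD293 cells. Signals were converted to percent inhibition against max and blank wells and fitted for IC50.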

[5] = Homo sapiens, AGS, 96 h, AGS cells, 96 h incubation, Cell-titer GLO
[6] = Homo sapiens, SW-620, 96 h, SW620 cells, 96 h incubation, Cell-titer GLO

Row | Compound | IC50 [1, 5] [nM] | IC50 [2, 6] [nM] | IC50 ([3]; read-out: NanoBRET KRAS G12D) [nM] | IC50 ([4]; read-out: NanoBRET KRAS G12V) [nM] | IC50 ([1]; AGS cells, 96 h incubation, Cell-titer GLO) [nM] | IC50 ([2]; SW620 cells, 96 h incubation, Cell-titer GLO) [nM] | IC50 ([1]; Homo sapiens, AGS, 96 h) [nM] | IC50 ([2]; Homo sapiens, SW-620, 96 h) [nM] | IC50 ([3]; NanoBRET KRAS G12D) [nM] | IC50 ([4]; NanoBRET KRAS G12V) [nM]
1 | CC1OCCCn2c(c3c4cc(ccc42)-c2csc(n2)CC(NC(=O)C2CC2C(F)F)C(=O)N2CCCC(N2)C(=O)OCC(C)(C)C3)-c2cc(N3CCN(C4CCN(C)CC4)CC3)cnc21 [Example 104, (1S,2S)-2-(difluoromethyl)-N-((1^5S,6^3S,4S,Z)-1^5,10,10-trimethyl-1^2-(4-(1-methylpiperidin-4-yl)piperazin-1-yl)-5,7-dioxo-1^8,1^9,6^1,6^2,6^3,6^4,6^5,6^6-octahydro-1^5H,1^7H-8-oxa-1(13,15)-pyrido[3',2': 7,8][1,5]oxazonino[5,6-a]indola-2(4,2)-thiazola-6(1,3)-pyridazinacycloundecaphane-4-yl)cyclop ropane-1-carboxamide] | 0.63 | 0.2 | 3.2 | 11.8 | – | – | – | – | – | –
2 | C[C@H]1C[C@@H]1C(=O)N[C@H]1Cc2nc(cs2)-c2ccc3c(c2)c(c2n3CCCOCc3ncc(N4CCN(C)CC4)cc3-2)CC(C)(C)COC(=O)[C@@H]2CCCN(N2)C1=O [Example 2, (1S,2S)-N-((6^3S,4S,Z)-10,10-dimethyl-1^2-(4-methylpiperazin-1-yl)-5,7-dioxo-1^8,1^9,6^1,6^2,6^3,6^4,6^5 ,6^6-octahydro-1^5H,1^7H-8-oxa-1(13,15)-pyrido[3',2':7,8][1,5]oxazonino[5,6-a]indola-2(4,2)-thiazola-6(1,3)-pyridazinacycloundecaphane-4-yl)-2-methylcyclopropane-1-carboxamide] | – | – | – | – | – | – | 8.7 | 1.56 | 29.1 | 206
3 | COCCN1CCN(c2cnc3c(c2)-c2c4c5cc(ccc5n2CCCOC3C)-c2csc(n2)CC(NC(=O)C2CC2C)C(=O)N2CCCC(N2)C(=O)OCC(C)(C)C4)CC1 [Example 22, (1S,2S)-N-((1^5S,6^3S,4S,Z)-1^2-(4-(2-methoxyethyl)piperazin-1-yl)-1^5,10,10-trimethyl-5,7-dioxo-1 ^8,1^9,6^1,6^2,6^3,6^4,6^5,6^6-octahydro-1^5H,1^7H-8-oxa-1(13,15)-pyrido[3',2':7,8][1,5]oxazonino[5,6-a]indola-2(4,2)-thiazola-6(1,3)-pyridazinacycloundecaphane-4-yl)-2-methylcyclopropane-1-carboxamide] | 2.62 | 1.03 | 6.6 | 22.9 | – | – | – | – | – | –
4 | CC1OCCCn2c(c3c4cc(ccc42)-c2csc(n2)CC(NC(=O)C2C(C)C2C)C(=O)N2CCCC(N2)C(=O)OCC(C)(C)C3)-c2cc(N3CC(C)N(C)C(C)C3)cnc21 [Example 171, (1r,2R,3S)-2,3-dimethyl-N-((1^5S,6^3S,4S,Z)-15,10,10-trimethyl-5,7-dioxo-1^2-((3S,5S)-3,4,5-trimethylpiperazin-1-yl)-1^8,1^9,6^1,6^2,6^3,6^4,6^5,6^6-octahydro-1^5H,1^7H-8-oxa-1(13,15)-pyrido[3',2':7,8][1, 5]oxazonino[5,6-a]indola-2(4,2)-thiazola-6(1,3)-pyridazinacycloundecaphane-4-yl)cyclopropane-1-carboxamide] | – | – | 0.24 | 3.04 | 0.11 | 0.04 | – | – | – | –
5 | CC1OCCCn2c(c3c4cc(ccc42)-c2csc(n2)CC(NC(=O)C24CC(C)(C2)C4)C(=O)N2CCCC(N2)C(=O)OCC(C)(C)C3)-c2cc(N3CCN(C)CC3)cnc21 [Example 80, 3-methyl-N-((1^53 ^3S,4S,Z)-1^5,10,10-trimethyl-1^2-(4-methylpiperazin-1-yl)-5,7-dioxo-1^8,1^9,6^1,6^2 ,6^3,6^4,6^5,^6-octahydro-1^5H,1^7H-8-oxa-1(13,15)-pyrido[3',2':7,8][1,5]oxazonino[5,6-a]indola-2(4, 2)-thiazola-6(1,3)-pyridazinacycloundecaphane-4-yl)bicyclo[1.1.1]pentane-1-carboxamide] | 1.76 | 0.3 | 5.7 | 21.3 | – | – | – | – | – | –

Further lines, with some results ahead:

Row | IC50 [1, 5] [nM] | IC50 [2, 6] [nM] | IC50 ([3]; read-out: NanoBRET KRAS G12D) [nM] | IC50 ([4]; read-out: NanoBRET KRAS G12V) [nM] | IC50 ([1]; AGS cells, 96 h incubation, Cell-titer GLO) [nM] | IC50 ([2]; SW620 cells, 96 h incubation, Cell-titer GLO) [nM] | Compound | IC50 ([1]; Homo sapiens, AGS, 96 h) [nM] | IC50 ([2]; Homo sapiens, SW-620, 96 h) [nM] | IC50 ([3]; NanoBRET KRAS G12D) [nM] | IC50 ([4]; NanoBRET KRAS G12V) [nM]
6 | 2.04 | 0.33 | 2.88 | 11.9 | – | – | CC1OCCCn2c(c3c4cc(ccc42)-c2csc(n2)CC(NC(=O)C2CC2C(F)F)C(=O)N2CCCC(N2)C(=O)OCC(C)(C)C3)-c2cc(N3CCOCC3)cnc21 [Example 83, (1S,2S)-2-(difluoromethyl)-N-((1^5S,6^3S,4S,Z)-1^5,10,10-trimethyl-1^2-morpholino-5,7-dioxo-1^8,1^9, 6^1,6^2,6^3,6^4,6^56-octahydro-1^5H,1^7H-8-oxa-1(13,15)-pyrido[3',2':7,8][1,5]oxazonino[5,6-a]indola-2(4,2)-thiazola-6(1,3)-pyridazinacycloundecaphane-4-yl)cyclopropane-1-carboxamide] | – | – | – | –
7 | 2.68 | 0.34 | 8.39 | 34.2 | – | – | CC1OCCCn2c(c3c4cc(ccc42)-c2csc(n2)CC(NC(=O)C2CC2C(F)F)C(=O)N2CCCC(N2)C(=O)OCC(C)(C)C3)-c2cc(N3CCNCC3)cnc21 [Example 112, (1S,2S)-2-(difluoromethyl)-N-((1^5S,6^3S,4S,Z)-1^5,10,10-trimethyl-5,7-dioxo-1^2-(piperazin-1-yl)-1 ^8,1^9,6^1,6^2,6^3,6^4,6^5,6^6-octahydro-1^5H,1^7H-8-oxa-1(13,15)-pyrido[3',2':7,8][1,5]oxazonino[5,6-a]indola-2(4,2)-thiazola-6(1,3)-pyridazinacycloundecaphane-4-yl)cyclopropane-1-carboxamide] | – | – | – | –
8 | 1.15 | 0.19 | 2.76 | 9.17 | – | – | CCN1CCN(c2cnc3c(c2)-c2c4c5cc(ccc5n2CCCOC3C)-c2csc(n2)CC(NC(=O)C2CC2C(F)F)C(=O)N2CCCC(N2)C(=O)OCC(C)(C)C4)CC1 [Example 84, (1S,2S)-2-(difluoromethyl)-N-((1^5S,6^3S,4S,Z)-1^2-(4-ethylpiperazin-1-yl)-1^5,10,10-trimethyl-5,7-dioxo-1^8,1^9,6^1,6^2,6^3,6^4,6^5,6^6-octahydro-1^5H,1^7H-8-oxa-1(13,15)-pyrido[3',2':7,8][1,5]oxazonino[5,6-a]indola-2(4,2)-thiazola-6(1,3)-pyridazinacycloundecaphane-4-yl)cyclopropane-1-carboxamide] | – | – | – | –
9 | 1.25 | 0.79 | 9.2 | 40.9 | – | – | CC1OCCCn2c(c3c4cc(ccc42)-c2csc(n2)CC(NC(=O)C2CC2C(F)F)C(=O)N2CCCC(N2)C(=O)OCC(C)(C)C3)-c2cc(N3CCS(=O)(=O)CC3)cnc21 [Example 133, (1S,2S)-2-(difluoromethyl)-N-((1^5S,6^3S,4S,Z)-1^2-(1,1-dioxidothiomorpholino)-1^5,10,10-trimethy 1-5,7-dioxo-1^8,1^9,6^1,6,^26^3,6^4,6^5,6^6-octahydro-1^5H,1^7H-8-oxa-1(13,15)-pyrido[3',2':7,8][1,5]oxazonino[5,6-alindola-2(4,2)-thiazola-6(1,3)-pyridazinacycloundecaphane-4-yl)cyclopropane-1-carboxamide] | – | – | – | –
10 | 0.38 | 0.17 | 4.13 | 14.7 | – | – | CC1OCCCn2c(c3c4cc(ccc42)-c2csc(n2)CC(NC(=O)C2CC2C(F)F)C(=O)N2CCCC(N2)C(=O)OCC(C)(C)C3)-c2cc(N3CCC(N4CCN(C)CC4)CC3)cnc21 [Example 102, (1S,2S)-2-(difluoromethyl)-N-((1^5S,6^3S,4S,Z)-1^5,10,10-trimethyl-1^2-(4-(4-methylpiperazin-1-yl)piperidin-1-yl)-5,7-dioxo-1^8,1^9,6^1,6^2,6^3,6^4,6^5,6^6-octahydro-1^5H,1^7H-8-oxa-1(13,15)-pyrido[3',2':7 ,8][1,5]oxazonino[5,6-a]indola-2(4,2)-thiazola-6(1,3)-pyridazinacycloundecaphane-4-yl)cyclopr opane-1-carboxamide] | – | – | – | –
11 | 1.4 | 0.6 | 1.97 | 8.52 | – | – | CC1OCCCn2c(c3c4cc(ccc42)-c2coc(n2)CC(NC(=O)C2CC2C(F)F)C(=O)N2CCCC(N2)C(=O)OCC(C)(C)C3)-c2cc(N3CCOCC3)cnc21 [Example 146, (1S,2S)-2-(difluoromethyl)-N-((1^5S,6^3S,4S,Z)-1^5,10,10-trimethyl-1^2-morpholino-5,7-dioxo-1^8,1^9, 6^1,6^2,6^3,6^4,6^5 6-octahydro-1^5H,1^7H-8-oxa-1(13,15)-pyrido[3',2':7,8][1,5]oxazonino[5,6-a]indola-2(4,2)-oxazola-6(1,3)-pyridazinacycloundecaphane-4-yl)cyclopropane-1-carboxamide] | – | – | – | –
